From patent US20230122510A1, “CANNABINOID DERIVATIVES” (CANOPY GROWTH CORPORATION, priority 2019, published 2023)

Legend:
human CB2 receptor = biological target: T1, human CB2 receptor (Homo sapiens, UniProt P34972); assay: CB2 radioligand competitive binding assay ([3H]CP 55,940 displacement); details: for IC50: displacement of 0.6 nM [3H]CP55,940, membranes of CHO-K1 cells expressing human CB2 receptor; for Selectivity CB2: fold difference between CB1 and CB2 binding, the receptor with higher binding affinity (CB2 over CB1)
T1 construct: host or cells: CHO-K1
Protocol: Compounds of the present disclosure were tested for CB1 receptor binding affinity and for CB2 receptor binding affinity. As used herein, “binding affinity” is represented by the IC50 value, which was experimentally determined as described herein. The lower the IC50 value the higher the binding affinity. A compound of the present disclosure may be said to have “binding selectivity” if it has a higher binding affinity for one receptor compared to the other.
The membranes were prepared from CHO-K1 (Chinese hamster ovary) cells stably transfected with the human CB2 receptor (Cat. #ES-111-C; Perkin Elmer, Boston, Mass.). The cells were grown adherently and maintained in Ham's F12 medium containing 10% fetal bovine serum (FBS), penicillin, streptomycin and geneticin (G418) at 37° C. in a humid atmosphere of 5% CO2 following the manufacturer's instructions.
For membrane preparation the cells were washed with PBS and scraped off the plates in cold homogenization buffer (25 mM HEPES (pH 7.4), 2 mM EDTA) containing protease inhibitor cocktail (Sigma Cat. #P8340). The cell suspension was homogenized with a Pro-PK-01200D Polytron Homogenizer (Pro Scientific) and then centrifuged for 30 min at 120,000×g. The supernatant was discarded and the pellet was re-suspended in the homogenization buffer and stored at −80° C. until the time of use.
In this experiment, 3H radiolabeled CP 55,940, i.e. [3H]CP 55,940 (Perkin Elmer, Boston, Mass.), was used as a radioligand for the CB2 receptor to determine the binding affinity of compounds for the CB2 receptor (Scheme 6; above).
The competition binding experiments (single dose and dose-response) were performed by incubating 0.6 nM of [3H]CP55,940 (specific activity 101 Ci/mmol, Perkin Elmer) and different concentrations of compounds disclosed herein with membranes prepared as above from CHO-K1 cells expressing human CB2 receptor (1 μg of protein/well), 50 mM Tris-HCl (pH 7.4), 5 mM MgCl2, 1 mM CaCl2, and 2 mg/mL BSA.
For the single dose experiments, the compound stocks (usually 10 mM in DMSO) were diluted to working stocks in the binding buffer to give the final compound concentrations of 10 μM and 1 μM. For the dose-response experiments the test compounds were sequentially diluted to provide the desired concentration range for the […] determination. In each case the compounds were pre-incubated with the membrane for 20 min, before adding the radioligand.
After incubation with the radioligand for 60 min at 37° C., the incubation was terminated by rapid filtration of assay mixture through MultiScreen®HTS^+ 96-well filter plates (Millipore, Cat. #MSFCNXB), pre-soaked for 60 min with 50 mM Tris-HCl (pH 7.4) containing 0.33% polyethylenimine (PEI). The nonspecific binding (NSB) was determined in the presence of 10 μM unlabelled CP55,940. After drying the filter plate at 50° C. for at least 60 min, the filter-bound radioactivity was determined by scintillation spectrometry using the 1450 MicroBeta Plate Counter (Perkin Elmer, Boston, Mass.). From the dose-response experiments, the IC50 values were determined (see Table 1, CB2 IC50).
Where the test compound had about the same affinity for both receptors, this is represented by a value of 1.00 in the column for both receptors.

human CB1 receptor = biological target: T2, human CB1 receptor (Homo sapiens, UniProt P21554); assay: CB1 radioligand competitive binding assay ([3H]CP 55,940 displacement); details: for IC50: displacement of 0.8 nM [3H]CP 55,940, membranes of CHO-K1 cells expressing human CB1 receptor; for Selectivity CB1: fold difference between CB1 and CB2 binding, (CB1 over CB2)
T2 construct: host or cells: CHO-K1
T2 sequence (P21554 whole entry): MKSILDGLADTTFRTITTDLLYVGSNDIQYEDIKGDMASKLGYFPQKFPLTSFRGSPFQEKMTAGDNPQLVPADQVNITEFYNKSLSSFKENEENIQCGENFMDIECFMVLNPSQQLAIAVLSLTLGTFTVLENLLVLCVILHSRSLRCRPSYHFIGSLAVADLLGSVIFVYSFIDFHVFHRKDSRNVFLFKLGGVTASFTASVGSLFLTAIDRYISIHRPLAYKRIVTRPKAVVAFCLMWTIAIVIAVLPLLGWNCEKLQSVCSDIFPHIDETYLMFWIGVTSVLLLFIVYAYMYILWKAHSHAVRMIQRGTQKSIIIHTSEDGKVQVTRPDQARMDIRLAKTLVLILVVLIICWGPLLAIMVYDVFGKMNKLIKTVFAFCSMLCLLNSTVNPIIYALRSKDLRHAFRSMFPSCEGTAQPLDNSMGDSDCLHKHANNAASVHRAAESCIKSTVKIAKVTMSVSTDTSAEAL

T1 sequence (P34972 whole entry): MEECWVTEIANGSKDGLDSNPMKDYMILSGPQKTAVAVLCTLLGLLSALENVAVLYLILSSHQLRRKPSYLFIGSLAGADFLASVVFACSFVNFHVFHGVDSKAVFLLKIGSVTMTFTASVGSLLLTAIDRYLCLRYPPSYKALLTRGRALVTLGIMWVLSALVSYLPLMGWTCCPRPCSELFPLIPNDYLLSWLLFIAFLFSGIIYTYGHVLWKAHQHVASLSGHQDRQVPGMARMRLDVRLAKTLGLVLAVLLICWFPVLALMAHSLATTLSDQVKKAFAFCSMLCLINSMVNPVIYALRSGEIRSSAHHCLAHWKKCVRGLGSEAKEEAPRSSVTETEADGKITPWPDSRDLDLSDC

**Q.** How did the IC50 (human CB2 receptor) turn out when `CCCCCc1cc(O)c(C/C=C(\C)CCC=C(C)C)c(O)c1-c1cncnc1` [Compound 13, 2-(3,7-dimethylocta-2,6-dien-1-yl)-5-pentyl-4-(pyrimidin-5-yl) benzene-1,3-diol] was run?
**A.** 1000 to 4990 nM

**Q.** And the “Selectivity CB2” value (human CB2 receptor)?
**A.** 1.85 fold

**Q.** What about the IC50 (human CB1 receptor) of the same molecule?
**A.** 1000 to 4990 nM

**Q.** With `CCCCCc1cc(O)c(C/C=C(\C)CCC=C(C)C)c(O)c1-c1ccncc1` [Compound 14, 2-(3,7-dimethylocta-2,6-dien-1-yl)-5-pentyl-4-(pyridin-4-yl)benzene-1,3-diol] as the molecule, how does the IC50 (human CB2 receptor) read?
**A.** 500 to 990 nM

**Q.** What about the “Selectivity CB2” value (human CB2 receptor) of the same molecule?
**A.** 2.27 fold

**Q.** And the IC50 (human CB1 receptor)?
**A.** 1000 to 4990 nM

**Q.** Which results are given for `CCCCCc1cc(O)c(C/C=C(\C)CCC=C(C)C)c(O)c1-c1ccco1` [Compound 15, 2-(3,7-dimethylocta-2,6-dien-1-yl)-4-(furan-2-yl)-5-pentylbenzene-1,3-diol]?
**A.** IC50 (human CB2 receptor): 1000 to 4990 nM; Selectivity CB2 (human CB2 receptor): 2.11 fold; IC50 (human CB1 receptor): 1000 to 4990 nM

**Q.** For `CCCCCc1cc(O)c(C/C=C(\C)CCC=C(C)C)c(O)c1-c1ccsc1` [Compound 17, 2-(3,7-dimethylocta-2,6-dien-1-yl)-5-pentyl-4-(thiophen-3-yl)benzene-1,3-diol], which IC50 (human CB2 receptor) is on record?
**A.** 500 to 990 nM

**Q.** And the “Selectivity CB2” value (human CB2 receptor)?
**A.** 2.10 fold

**Q.** What about the IC50 (human CB1 receptor) of the same molecule?
**A.** 1000 to 4990 nM

**Q.** For `CCCCCc1cc(O)c(C/C=C(\C)CCC=C(C)C)c(O)c1-c1cncs1` [Compound 18, 2-(3,7-dimethylocta-2,6-dien-1-yl)-5-pentyl-4-(thiazol-5-yl) benzene-1,3-diol], which IC50 (human CB2 receptor) is on record?
**A.** 500 to 990 nM

**Q.** And the “Selectivity CB2” value (human CB2 receptor)?
**A.** 2.32 fold

**Q.** And the IC50 (human CB1 receptor)?
**A.** 1000 to 4990 nM

**Q.** Which results are given for `CCCCCc1cc(O)c(C/C=C(\C)CCC=C(C)C)c(O)c1-c1cc2ccccc2o1` [Compound 32, 4-(benzofuran-2-yl)-2-(3,7-dimethylocta-2,6-dien-1-yl)-5-pentylbenzene-1,3-diol]?
**A.** IC50 (human CB2 receptor): 1000 to 4990 nM; IC50 (human CB1 receptor): 500 to 990 nM; Selectivity CB1 (human CB1 receptor): 1.16 fold

**Q.** What does the source list for `CCCCCc1cc(O)c(C/C=C(\C)CCC=C(C)C)c(O)c1-c1cc2ccccc2s1` [Compound 33, 4-(benzo[b]thiophen-2-yl)-2-(3,7-dimethylocta-2,6-dien-1-yl)-5-pentylbenzene-1,3-diol]?
**A.** IC50 (human CB2 receptor): 500 to 990 nM; Selectivity CB2 (human CB2 receptor): 1.45 fold; IC50 (human CB1 receptor): 1000 to 4990 nM

**Q.** `CCCCCc1cc(O)c(C/C=C(\C)CCC=C(C)C)c(O)c1-c1cc(C)cs1` [Compound 34, 2-(3,7-dimethylocta-2,6-dien-1-yl)-4-(4-methylthiophen-2-yl)-5-pentylbenzene-1,3-diol] was tested. Which IC50 (human CB2 receptor) did it give?
**A.** < 500 nM

**Q.** And the “Selectivity CB2” value (human CB2 receptor)?
**A.** 2.15 fold

**Q.** What about the IC50 (human CB1 receptor) of the same molecule?
**A.** 500 to 990 nM

**Q.** `CCCCCc1cc(O)c(C/C=C(\C)CCC=C(C)C)c(O)c1-c1ccnn1C` [Compound 35, (E)-2-(3,7-dimethylocta-2,6-dien-1-yl)-4-(1-methyl-1H-pyrazol-5-yl)-5-pentylbenzene-1,3-diol] was tested. Which IC50 (human CB2 receptor) did it give?
**A.** 1000 to 4990 nM

**Q.** What about the “Selectivity CB2” value (human CB2 receptor) of the same molecule?
**A.** 1.21 fold

**Q.** And the IC50 (human CB1 receptor)?
**A.** 1000 to 4990 nM

**Q.** What does the source list for `CCCCCc1cc(O)c(C/C=C(\C)CCC=C(C)C)c(O)c1-c1cccc(N2CCOCC2)c1` [Compound 36, 3-(3,7-dimethylocta-2,6-dien-1-yl)-3′-morpholino-6-pentyl-[1,1′-biphenyl]-2,4-diol]?
**A.** IC50 (human CB2 receptor): < 500 nM; Selectivity CB2 (human CB2 receptor): 8.93 fold; IC50 (human CB1 receptor): < 500 nM

**Q.** What does the source list for `CCCCCc1cc(O)c(C/C=C(\C)CCC=C(C)C)c(O)c1-c1c(C)noc1C` [Compound 37, 4-(3,5-dimethylisoxazol-4-yl)-2-(3,7-dimethylocta-2,6-dien-1-yl)-5-pentylbenzene-1,3-diol]?
**A.** IC50 (human CB2 receptor): 1000 to 4990 nM; Selectivity CB2 (human CB2 receptor): 7.14 fold; IC50 (human CB1 receptor): > 5000 nM

**Q.** What does the source list for `CCCCCc1cc(O)c(C/C=C(\C)CCC=C(C)C)c(O)c1-c1cn[nH]c1` [Compound 38, 2-(3,7-dimethylocta-2,6-dien-1-yl)-5-pentyl-4-(1H-pyrazol-4-yl) benzene-1,3-diol]?
**A.** IC50 (human CB2 receptor): 500 to 990 nM; Selectivity CB2 (human CB2 receptor): 1.21 fold; IC50 (human CB1 receptor): 500 to 990 nM

**Q.** How did the IC50 (human CB2 receptor) turn out when `CCCCCc1cc(O)c(C/C=C(\C)CCC=C(C)C)c(O)c1-c1ccnc(C)c1` [Compound 39, 2-(3,7-dimethylocta-2,6-dien-1-yl)-4-(2-methylpyridin-4-yl)-5-pentylbenzene-1,3-diol] was run?
**A.** 500 to 990 nM

**Q.** And the “Selectivity CB2” value (human CB2 receptor)?
**A.** 2.18 fold

**Q.** And the IC50 (human CB1 receptor)?
**A.** 1000 to 4990 nM

**Q.** What does the source list for `CCCCCc1cc(O)c(C/C=C(\C)CCC=C(C)C)c(O)c1-c1ccc2nccnc2c1` [Compound 40, 2-(3,7-dimethylocta-2,6-dien-1-yl)-5-pentyl-4-(quinoxalin-6-yl)benzene-1,3-diol]?
**A.** IC50 (human CB2 receptor): 1000 to 4990 nM; IC50 (human CB1 receptor): 500 to 990 nM; Selectivity CB1 (human CB1 receptor): 1.65 fold

**Q.** Which results are given for `CCCCCc1cc(O)c(C/C=C(\C)CCC=C(C)C)c(O)c1-c1ccc2[nH]ncc2c1` [Compound 41, 2-(3,7-dimethylocta-2,6-dien-1-yl)-4-(1H-indazol-5-yl)-5-pentylbenzene-1,3-diol]?
**A.** IC50 (human CB2 receptor): 500 to 990 nM; IC50 (human CB1 receptor): < 500 nM; Selectivity CB1 (human CB1 receptor): 79.18 fold

**Q.** Which results are given for `CCCCCc1cc(O)c(C/C=C(\C)CCC=C(C)C)c(O)c1-c1cnc2ccccc2c1` [Compound 42, 2-(3,7-dimethylocta-2,6-dien-1-yl)-5-pentyl-4-(quinolin-3-yl) benzene-1,3-diol]?
**A.** IC50 (human CB2 receptor): 1000 to 4990 nM; IC50 (human CB1 receptor): 500 to 990 nM; Selectivity CB1 (human CB1 receptor): 2.69 fold

**Q.** How did the IC50 (human CB2 receptor) turn out when `CCCc1cc(O)c(C/C=C(\C)CCC=C(C)C)c(O)c1-c1ccsc1` [Compound 43, 2-(3,7-dimethylocta-2,6-dien-1-yl)-5-propyl-4-(thiophen-3-yl) benzene-1,3-diol] was run?
**A.** 500 to 990 nM

**Q.** And the “Selectivity CB2” value (human CB2 receptor)?
**A.** 2.26 fold

**Q.** What about the IC50 (human CB1 receptor) of the same molecule?
**A.** 1000 to 4990 nM

**Q.** Which results are given for `CCCc1cc(O)c(C/C=C(\C)CCC=C(C)C)c(O)c1-c1cc2ccccc2o1` [Compound 44, 4-(benzofuran-2-yl)-2-(3,7-dimethylocta-2,6-dien-1-yl)-5-propylbenzene-1,3-diol]?
**A.** IC50 (human CB2 receptor): 1000 to 4990 nM; IC50 (human CB1 receptor): 500 to 990 nM; Selectivity CB1 (human CB1 receptor): 1.67 fold
